Data as given in PubChem BioAssay (NCI).
Values joined by “and” are separate entries in the source; they are usually repeats but may differ in a detail not shown here. Equal values may be shown once.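 48-hour exposure; five concentrations; linearly interpolated endpoints. GI50 is the concentration that inhibits growth by half. TGI denotes the concentration required for complete inhibition of growth.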

Key:
Assay in all cases: DTP human tumour cell line panel, 48 h
786-0 renal = system: 786-0 renal
A498 renal = system: A498 renal
A549 NSCLC = system: A549 NSCLC
ACHN renal = system: ACHN renal
BT-549 breast = system: BT-549 breast
CAKI-1 renal = system: CAKI-1 renal
CCRF-CEM leukemia = system: CCRF-CEM leukemia
COLO 205 colon = system: COLO 205 colon
DU-145 prostate = system: DU-145 prostate
EKVX NSCLC = system: EKVX NSCLC
HCC-2998 colon = system: HCC-2998 colon
HCT-116 colon = system: HCT-116 colon
HCT-15 colon = system: HCT-15 colon
HL-60(TB) leukemia = system: HL-60(TB) leukemia
HOP-62 NSCLC = system: HOP-62 NSCLC
HOP-92 NSCLC = system: HOP-92 NSCLC
HS 578T breast = system: HS 578T breast
HT29 colon = system: HT29 colon
K-562 leukemia = system: K-562 leukemia
KM12 colon = system: KM12 colon
M14 melanoma = system: M14 melanoma
MALME-3M melanoma = system: MALME-3M melanoma
MCF7 breast = system: MCF7 breast
MDA-MB-231 breast = system: MDA-MB-231 breast
MDA-MB-435 = system: MDA-MB-435
MDA-N = system: MDA-N
NCI-H226 lung = system: NCI-H226 lung
NCI-H23 lung = system: NCI-H23 lung
NCI-H460 lung = system: NCI-H460 lung
NCI-H522 lung = system: NCI-H522 lung
NCI/ADR-RES ovarian = system: NCI/ADR-RES ovarian
OVCAR-3 ovarian = system: OVCAR-3 ovarian
OVCAR-4 ovarian = system: OVCAR-4 ovarian
OVCAR-5 ovarian = system: OVCAR-5 ovarian
OVCAR-8 ovarian = system: OVCAR-8 ovarian
PC-3 prostate = system: PC-3 prostate
RPMI-8226 leukemia = system: RPMI-8226 leukemia
RXF 393 renal = system: RXF 393 renal
SF-268 CNS = system: SF-268 CNS
SF-295 CNS = system: SF-295 CNS
SF-539 CNS = system: SF-539 CNS
SK-MEL-2 melanoma = system: SK-MEL-2 melanoma
SK-MEL-28 melanoma = system: SK-MEL-28 melanoma
SK-OV-3 ovarian = system: SK-OV-3 ovarian
SN12C renal = system: SN12C renal
SNB-19 CNS = system: SNB-19 CNS
SNB-75 CNS = system: SNB-75 CNS
SR leukemia = system: SR leukemia
SW-620 colon = system: SW-620 colon
T-47D breast = system: T-47D breast
TK-10 renal = system: TK-10 renal
UACC-257 melanoma = system: UACC-257 melanoma
UACC-62 melanoma = system: UACC-62 melanoma
UO-31 renal = system: UO-31 renal

In the case of CCCC(=O)Nc1cc(C(=O)N2C[C@H]3C[C@@]34C2=CC(=O)c2[nH]cc(C)c24)n(COC)c1, the TGI (786-0 renal) is reported as 5820 nM, the GI50 (A498 renal) is reported as 220 nM and the TGI (A498 renal) is reported as 1700 nM and 758 nM. The GI50 (A549 NSCLC) was 1200 nM, the TGI (A549 NSCLC) was 50000 nM and 12800 nM and the GI50 (ACHN renal) was 88.8 nM. The TGI (ACHN renal) was 2500 nM and 342 nM, the GI50 (BT-549 breast) was 159 nM and the GI50 (CAKI-1 renal) was 175 nM. The TGI (CAKI-1 renal) was 1030 nM and 520 nM, the TGI (CCRF-CEM leukemia) was 105 nM and 245 nM and the GI50 (COLO 205 colon) was 119 nM. The TGI (COLO 205 colon) was 1140 nM and 261 nM, the GI50 (DU-145 prostate) was 77.6 nM and the GI50 (EKVX NSCLC) was 421 nM. For the same compound, the TGI (EKVX NSCLC) was 3370 nM and 2290 nM, the GI50 (HCC-2998 colon) was 140 nM and the TGI (HCC-2998 colon) was 361 nM and 336 nM. The TGI (HCT-116 colon) was 7270 nM, the GI50 (HCT-15 colon) was 242 nM and the TGI (HCT-15 colon) was 17800 nM and 2310 nM. The TGI (HL-60(TB) leukemia) was 230 nM, the GI50 (HOP-62 NSCLC) was 104 nM and the GI50 (HOP-92 NSCLC) was 291 nM. For the same compound, the TGI (HOP-92 NSCLC) was 2640 nM and 728 nM, the GI50 (HS 578T breast) was 267 nM and the TGI (HS 578T breast) was 2880 nM and 989 nM. For the same compound, the GI50 (HT29 colon) was 296 nM, the TGI (HT29 colon) was 4470 nM and 20500 nM and the GI50 (K-562 leukemia) was 92.5 nM. For the same compound, the TGI (K-562 leukemia) was 50000 nM and 18800 nM, the GI50 (KM12 colon) was 282 nM and the TGI (KM12 colon) was 2290 nM and 14700 nM. The GI50 (M14 melanoma) was 167 nM, the TGI (MALME-3M melanoma) was 439 nM and the GI50 (MCF7 breast) was 13.9 nM. For the same compound, the TGI (MCF7 breast) was 6320 nM and 661 nM, the TGI (MDA-MB-231 breast) was 3000 nM and the TGI (MDA-MB-435) was 1600 nM and 537 nM. The GI50 (MDA-N) was 164 nM, the TGI (MDA-N) was 1590 nM and 316 nM and the TGI (NCI-H226 lung) was 5180 nM. The GI50 (NCI-H23 lung) was 32.8 nM, the TGI (NCI-H23 lung) was 452 nM and 213 nM and the GI50 (NCI-H460 lung) was 135 nM. For the same compound, the GI50 (NCI-H522 lung) was 11.5 nM, the TGI (NCI-H522 lung) was 261 nM and 117 nM and the GI50 (NCI/ADR-RES ovarian) was 1170 nM. For the same compound, the TGI (NCI/ADR-RES ovarian) was 2730 nM and 4640 nM, the TGI (OVCAR-3 ovarian) was 688 nM and the GI50 (OVCAR-4 ovarian) was 239 nM. For the same compound, the TGI (OVCAR-4 ovarian) was 4760 nM and 626 nM, the TGI (OVCAR-5 ovarian) was 50000 nM and the GI50 (OVCAR-8 ovarian) was 130 nM. The TGI (OVCAR-8 ovarian) was 343 nM and 392 nM, the GI50 (PC-3 prostate) was 147 nM and the GI50 (RPMI-8226 leukemia) was 176 nM. The TGI (RPMI-8226 leukemia) was 2840 nM and 776 nM, the GI50 (RXF 393 renal) was 106 nM and the GI50 (SF-268 CNS) was 84.7 nM. The TGI (SF-268 CNS) was 1500 nM and 11100 nM, the GI50 (SF-295 CNS) was 229 nM and the GI50 (SF-539 CNS) was 118 nM. The GI50 (SK-MEL-2 melanoma) was 130 nM, the TGI (SK-MEL-28 melanoma) was 1280 nM and the TGI (SK-OV-3 ovarian) was 5360 nM. The GI50 (SN12C renal) was 168 nM, the TGI (SN12C renal) was 4180 nM and 684 nM and the GI50 (SNB-19 CNS) was 326 nM. For the same compound, the TGI (SNB-19 CNS) was 29100 nM and 13000 nM, the TGI (SNB-75 CNS) was 1450 nM and 718 nM and the TGI (SR leukemia) was 23.6 nM. For the same compound, the GI50 (SW-620 colon) was 184 nM, the TGI (SW-620 colon) was 82200 nM and the TGI (T-47D breast) was 1490 nM. The TGI (TK-10 renal) was 2870 nM, the TGI (UACC-257 melanoma) was 833 nM and the GI50 (UACC-62 melanoma) was 144 nM. The TGI (UACC-62 melanoma) was 911 nM and 289 nM, the GI50 (UO-31 renal) was 561 nM and the TGI (UO-31 renal) was 3640 nM.
